Assay results as given in PubChem BioAssay AID1259411 (Chemical Carcinogenesis Research Information System (CCRIS), 2018).
Calls of active or inactive are those of the source. No rule for the calls is given here.

Test system: rodent carcinogenicity bioassays, tumor incidence
Assay: CCRIS carcinogenicity studies
How it was run: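 NCI-built, expert-reviewed records of carcinogenicity and related test outcomes (mutagenicity, tumor promotion/inhibition) compiled from published and report sources, historical span 1985-2011, not updated.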

Measured: carcinogen call

CCOC(N)=O
inactive: Species: Mouse, Strain/Sex: 129 x MF1 Gstp-null (12-16 males and females), Route: Intraperitoneal, Dose: 10 mg/kg, once, study duration 5 mo, Tumor Site: Type of Lesion: Lung: adenoma (incidence 92% vs 27% in controls, multiplicity 3.8 vs 0.3 in controls) inactive; negative | Species: Mouse, Strain/Sex: 129 x MF1 wild type (14-16 males and females), Route: Intraperitoneal, Dose: 10 mg/kg, once, study duration 5 mo, Tumor Site: Type of Lesion: Lung: adenoma (incidence 29% vs 25% in controls, multiplicity 0.4 vs 0.3 in controls) inactive; negative
active: Species: MOUSE, Strain/Sex: ICR/FEMALE, Route: INHALATION, Dose: 0, 0.25 UG/ML AIR FOR 5 D (TOTAL DOSE 1.25 UG/ML/D) (STUDY DURATION: 5 MO), Tumor Site: Type of Lesion: LUNG: TUMOR, HEMATOPOIETIC SYSTEM: LEUKEMIA active; positive | Species: MOUSE, Strain/Sex: ICR/FEMALE, Route: INHALATION, Dose: 0, 0.25 UG/ML AIR FOR 10 D (TOTAL DOSE 2.5 UG/ML/D) (STUDY DURATION: 5 MO), Tumor Site: Type of Lesion: LUNG: TUMOR active; positive | Species: MOUSE, Strain/Sex: ICR/FEMALE, Route: INHALATION, Dose: 0, 1.29 UG/ML AIR FOR 0.25 D (TOTAL DOSE 0.32 UG/ML/D) (STUDY DURATION: 5 MO), Tumor Site: Type of Lesion: LUNG: TUMOR, HEMATOPOIETIC SYSTEM: LEUKEMIA active; positive | Species: MOUSE, Strain/Sex: ICR/FEMALE, Route: INHALATION, Dose: 0, 1.29 UG/ML AIR FOR 1 D (TOTAL DOSE 1.29 UG/ML/D) (STUDY DURATION; 5 MO), Dose: 0, 1.29 UG/ML AIR FOR 1 D (TOTAL DOSE 1.29 UG/ML/D) (STUDY DURATION; 5 MO), Tumor Site: Type of Lesion: LUNG: TUMOR, HEMATOPOIETIC SYSTEM: LEUKEMIA active; positive | Species: MOUSE, Strain/Sex: ICR/FEMALE, Route: INHALATION, Dose: 0, 1.29 UG/ML AIR FOR 2 D (TOTAL DOSE 2.58 UG/ML/D) (STUDY DURATION: 5 MO), Tumor Site: Type of Lesion: LUNG: TUMOR, HEMATOPOIETIC SYSTEM: LEUKEMIA active; positive | Species: MOUSE, Strain/Sex: ICR/FEMALE, Route: INHALATION, Dose: 0, 1.29 UG/ML AIR FOR 4 D (TOTAL DOSE 5.16 UG/ML/D) (STUDY DURATION: 5 MO), Tumor Site: Type of Lesion: LUNG: TUMOR, HEMATOPOIETIC SYSTEM: LEUKEMIA active; positive | Species: MOUSE, Strain/Sex: ICR/FEMALE, Route: INHALATION, Dose: 0, 1.29 UG/ML AIR FOR 5 D (TOTAL DOSE 6.45 UG/ML/D) (STUDY DURATION: 5 MO), Tumor Site: Type of Lesion: LUNG: TUMOR, HEMATOPOIETIC SYSTEM: LEUKEMIA active; positive | Species: MOUSE, Strain/Sex: ICR/MALE, Route: INHALATION, Dose: 0, 0.25 UG/ML AIR FOR 10 D (TOTAL DOSE 2.5 UG/ML/D) (STUDY DURATION: 12 MO), Tumor Site: Type of Lesion: LUNG: ADENOCARCINOMA, HEMATOPOIETIC SYSTEM: LEUKEMIA, LIVER: HEPATOMA, Tumor Site: Type of Lesion: LUNG: ADENOCARCINOMA, HEMATOPOIETIC SYSTEM: LEUKEMIA, LIVER: HEPATOMA active; positive | Species: MOUSE, Strain/Sex: ICR/MALE, Route: INHALATION, Dose: 0, 1.29 UG/ML AIR FOR 4 D (TOTAL DOSE 5.16 UG/ML/D) (STUDY DURATION: 12 MO), Tumor Site: Type of Lesion: LUNG: ADENOCARCINOMA, HEMATOPOIETIC SYSTEM: LEUKEMIA, LIVER: HEPATOMA, Tumor Site: Type of Lesion: LUNG: ADENOCARCINOMA, HEMATOPOIETIC SYSTEM: LEUKEMIA, LIVER: HEPATOMA active; positive | Species: MOUSE, Strain/Sex: STRAIN-A/MALE, Route: INTRAPERITONEAL, Dose: 0, 1.12, 4.6 MMOL/KG IN ISOTONIC SALINE ONCE AT 6 WK OF AGE (STUDY DURATION: 16 WK), Dose: 0, 1.12, 4.6 MMOL/KG IN ISOTONIC SALINE ONCE AT 6 WK OF AGE (STUDY DURATION: 16 WK), Tumor Site: Type of Lesion: LUNG: ADENOMA active; positive | Species: MOUSE, Strain/Sex: SWISS WEBSTER/FEMALE, Route: INTRAVENOUS, Dose: 0, 3.3 MMOL ONCE ADMINISTERED TO VIRGIN FEMALES AT 12 WK OF AGE (STUDY DURATION: 6 MO), Tumor Site: Type of Lesion: LUNG: ADENOMA active; positive | Species: MOUSE, Strain/Sex: SWISS WEBSTER/FEMALE, Route: INTRAVENOUS, Dose: 0, 3.3 MMOL/KG ONCE ADMINISTERED TO MOTHERS ON GESTATIONAL DAY 14 (STUDY DURATION: 6 MO), Tumor Site: Type of Lesion: LUNG: ADENOMA active; positive | Species: MOUSE, Strain/Sex: SWISS WEBSTER/FEMALE, Route: TRANSPLACENTAL, Dose: 0, 3.3 MMOL/KG ONCE BY INTRAVENOUS ADMINISTRATION TO MOTHERS ON GESTATIONAL DAY 14 (STUDY DURATION: 6 MO), Tumor Site: Type of Lesion: LUNG: ADENOMA active; positive | Species: MOUSE, Strain/Sex: SWISS WEBSTER/MALE, Route: TRANSPLACENTAL, Dose: 0, 3.3 MMOL/KG ONCE BY INTRAVENOUS ADMINISTRATION TO MOTHERS ON GESTATIONAL DAY 14 (STUDY DURATION: 6 Mo), Tumor Site: Type of Lesion: LUNG: ADENOMA active; positive | Species: MOUSE, Strain/Sex: SWISS/MALE,FEMALE, Route: ORAL, Dose: 0, 0.4% IN DRINKING WATER, 2 10-D TREATMENTS, Dose: 0, 0.4% IN DRINKING WATER, 2 10-D TREATMENTS, Tumor Site: Type of Lesion: LUNG: ADENOMA, LYMPHOMA, LIVER: HEMANGIOMA, INTEGUMENTARY SYSTEM (SKIN): PAPILLOMA, SEBACEOUS CARCINOMA, Tumor Site: Type of Lesion: LUNG: ADENOMA, LYMPHOMA, LIVER: HEMANGIOMA, INTEGUMENTARY SYSTEM (SKIN): PAPILLOMA, SEBACEOUS CARCINOMA active; positive | Species: RAT, Route: INTRAPERITONEAL, ORAL, Tumor Site: Type of Lesion: LIVER active; positive | Species: RAT, Route: INTRAPERITONEAL, Tumor Site: Type of Lesion: LIVER, NERVOUS SYSTEM active; positive | Species: RAT, Route: SUBCUTANEOUS, Tumor Site: Type of Lesion: EYE (IRIS) active; positive
